Test results from patent publication EP2768830B1, “APOPTOSIS-INDUCING AGENTS FOR THE TREATMENT OF CANCER AND IMMUNE AND AUTOIMMUNE DISEASES” (AbbVie Inc., priority 2011, dated 2013).
pEC50, pKi: −log10 of the molar value. Like-named read-outs stand apart in the source and are kept apart here.

What was measured:
[1] = system: mouse FL5.12 cells transfected with Bcl-XL; experiment: FL5.12 cellular assay (cell viability, CellTiter-Glo); assay type: cell-based; conditions: FL5.12 cells transfected with Bcl-XL, IL-3-depleted, 3% FBS assay media, 24 hours, CellTiter-Glo, read-out: FL5.12 Bcl-xL, - IL3, EC 50;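 further: each EC50 determination derived from duplicate measurements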
GST-Bcl-xL = GST-Bcl-xL (Homo sapiens, UniProt Q07817); conditions: read-out: TR-FRET binding Bcl-xL Ki
Sequence of GST-Bcl-xL (Q07817 whole entry): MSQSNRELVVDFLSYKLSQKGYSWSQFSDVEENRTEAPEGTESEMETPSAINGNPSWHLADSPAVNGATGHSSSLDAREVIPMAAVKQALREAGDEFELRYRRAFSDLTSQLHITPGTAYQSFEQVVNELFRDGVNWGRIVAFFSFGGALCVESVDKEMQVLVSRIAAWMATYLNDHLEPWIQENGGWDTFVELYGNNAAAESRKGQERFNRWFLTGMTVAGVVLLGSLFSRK

Compound	pEC50 [1]	pKi (GST-Bcl-xL)	pEC50 ([1]; Mus musculus)
O=C(Nc1nc2ccccc2s1)c1cccc2c1CN(c1ccc(-c3cnn(Cc4cc(F)cc(F)c4)c3)c(C(=O)O)n1)CC2 [Example 53, 6-[8-(1,3-benzothiazol-2-ylcarbamoyl)-3,4-dihydroisoquinolin-2(1H)-yl]-3-[1-(3,5-difluorobenzyl)-1H-pyrazol-4-yl]pyridine-2-carboxylic acid]	6.41	7.85	–
CN(C)CCCNc1ccc(Cn2cc(-c3ccc(N4CCc5cccc(C(=O)Nc6nc7ccccc7s6)c5C4)nc3C(=O)O)cn2)cc1[N+](=O)[O-] [Example 44, 6-[8-(1,3-benzothiazol-2-ylcarbamoyl)-3,4-dihydroisoquinolin-2(1H)-yl]-3-[1-(4-{[3-(dimethylamino)propyl]amino}-3-nitrobenzyl)-1H-pyrazol-4-yl]pyridine-2-carboxylic acid]	–	7.77	< 6.00
O=C(Nc1nc2ccccc2s1)c1cccc2c1CN(c1ccc(-c3cn(Cc4ccccc4)nn3)c(C(=O)O)n1)CC2 [Example 122, 6-[8-(1,3-benzothiazol-2-ylcarbamoyl)-3,4-dihydroisoquinolin-2(1H)-yl]-3-(1-benzyl-1H-1,2,3-triazol-4-yl)pyridine-2-carboxylic acid]	–	6.93	< 6.00
O=C(Nc1nc2ccccc2s1)c1cccc2c1CN(c1ccc(-c3cnn(Cc4ccccc4-c4ccccc4)c3)c(C(=O)O)n1)CC2 [Example 62, 6-[8-(1,3-benzothiazol-2-ylcarbamoyl)-3,4-dihydroisoquinolin-2(1H)-yl]-3-[1-(biphenyl-2-ylmethyl)-1H-pyrazol-4-yl]pyridine-2-carboxylic acid]	–	7.21	< 6.00
COC(=O)C(c1ccccc1)n1cc(-c2ccc(N3CCc4cccc(C(=O)Nc5nc6ccccc6s5)c4C3)nc2C(=O)O)cn1 (stereo not shown) [Example 95, 6-[8-(1,3-benzothiazol-2-ylcarbamoyl)-3,4-dihydroisoquinolin-2(1H)-yl]-3-[1-(2-methoxy-2-oxo-1-phenylethyl)-1H-pyrazol-4-yl]pyridine-2-carboxylic acid]	–	7.96	6.27
CN(C)CCOc1ccccc1Cn1cc(-c2ccc(N3CCc4cccc(C(=O)Nc5nc6ccccc6s5)c4C3)nc2C(=O)O)cn1 [Example 40, 6-[8-(1,3-benzothiazol-2-ylcarbamoyl)-3,4-dihydroisoquinolin-2(1H)-yl]-3-(1-{2-[2-(dimethylamino)ethoxy]benzyl}-1H-pyrazol-4-yl)pyridine-2-carboxylic acid]	–	7.80	6.24
O=C(Nc1nc2ccccc2s1)c1cccc2c1CN(c1ccc(-c3cccc(OC4CCCCC4)c3C(F)(F)F)c(C(=O)O)n1)CC2 [Example 120, 6-[8-(1,3-benzothiazol-2-ylcarbamoyl)-3,4-dihydroisoquinolin-2(1H)-yl]-3-[3-(cyclohexyloxy)-2-(trifluoromethyl)phenyl]pyridine-2-carboxylic acid]	–	9.40	6.07
Cc1c(-c2ccc(N3CCc4cccc(C(=O)Nc5nc6ccccc6s5)c4C3)nc2C(=O)O)cccc1N(C)C(=O)C1CCCCC1 [Example 177, 6-[8-(1,3-benzothiazol-2-ylcarbamoyl)-3,4-dihydroisoquinolin-2(1H)-yl]-3-{3-[(cyclohexylcarbonyl)(methyl)amino]-2-methylphenyl}pyridine-2-carboxylic acid]	–	> 10.00	7.62
O=C(Nc1nc2ccccc2s1)c1cccc2c1CN(c1ccc(-c3cnn(CC4CCCCC4)c3C3CC3)c(C(=O)O)n1)CC2 [Example 70, 6-[8-(1,3-benzothiazol-2-ylcarbamoyl)-3,4-dihydroisoquinolin-2(1H)-yl]-3-[1-(cyclohexylmethyl)-5-cyclopropyl-1H-pyrazol-4-yl]pyridine-2-carboxylic acid]	–	8.30	7.24
O=C(Nc1nc2ccccc2s1)c1cccc2c1CN(c1ccc(-c3cnn(CC4CCCCC4)c3)c(C(=O)O)n1)CC2 [Example 42, 6-[8-(1,3-benzothiazol-2-ylcarbamoyl)-3,4-dihydroisoquinolin-2(1H)-yl]-3-[1-(cyclohexylmethyl)-1H-pyrazol-4-yl]pyridine-2-carboxylic acid]	–	8.70	6.63
COC1(Cn2nnc(-c3ccc(N4CCc5cccc(C(=O)Nc6nc7ccccc7s6)c5C4)nc3C(=O)O)c2C)CCCC(C)(C)C1 (stereo not shown) [Example 166, 6-[8-(1,3-benzothiazol-2-ylcarbamoyl)-3,4-dihydroisoquinolin-2(1H)-yl]-3-{1-[(1-methoxy-3,3-dimethylcyclohexyl)methyl]-5-methyl-1H-1,2,3-triazol-4-yl}pyridine-2-carboxylic acid]	–	> 10.00	7.52
O=C(Nc1nc2ccccc2s1)c1cccc2c1CN(c1ccc(-c3cnn(C4CCc5ccccc54)c3)c(C(=O)O)n1)CC2 (stereo not shown) [Example 37, 6-[8-(1,3-benzothiazol-2-ylcarbamoyl)-3,4-dihydroisoquinolin-2(1H)-yl]-3-[1-(2,3-dihydro-1H-inden-1-yl)-1H-pyrazol-4-yl]pyridine-2-carboxylic acid]	–	7.77	6.46
O=C(Nc1nc2ccccc2s1)c1cccc2c1CN(c1ccc(-c3cccc(Oc4ccc(Cl)cc4)c3)c(C(=O)O)n1)CC2 [Example 105, 6-[8-(1,3-benzothiazol-2-ylcarbamoyl)-3,4-dihydroisoquinolin-2(1H)-yl]-3-[3-(4-chlorophenoxy)phenyl]pyridine-2-carboxylic acid]	–	8.15	< 6.00
O=C(Nc1nc2ccccc2s1)c1cccc2c1CN(c1ccc(-c3cccc(Oc4ccccc4)c3)c(C(=O)O)n1)CC2 [Example 103, 6-[8-(1,3-benzothiazol-2-ylcarbamoyl)-3,4-dihydroisoquinolin-2(1H)-yl]-3-(3-phenoxyphenyl)pyridine-2-carboxylic acid]	< 6.00	9.22	–
COC1(Cn2ncc(-c3ccc(N4CCc5cccc(C(=O)Nc6nc7ccccc7s6)c5C4)nc3C(=O)NS(C)(=O)=O)c2C)CCCC(C)(C)C1 (stereo not shown) [Example 162, N-(1,3-benzothiazol-2-yl)-2-(5-{1-[(1-methoxy-3,3-dimethylcyclohexyl)methyl]-5-methyl-1H-pyrazol-4-yl}-6-[(methylsulfonyl)carbamoyl]pyridin-2-yl)-1,2,3,4-tetrahydroisoquinoline-8-carboxamide]	–	> 10.00	8.30
Cc1c(-c2ccc(N3CCc4cccc(C(=O)Nc5nc6ccccc6s5)c4C3)nc2C(=O)O)cc(C#N)n1CC1CCCCC1 [Example 130, 6-[8-(1,3-benzothiazol-2-ylcarbamoyl)-3,4-dihydroisoquinolin-2(1H)-yl]-3-[5-cyano-1-(cyclohexylmethyl)-2-methyl-1H-pyrrol-3-yl]pyridine-2-carboxylic acid]	–	> 10.00	7.52
Cc1nn(Cc2ccccc2)cc1-c1ccc(N2CCc3cccc(C(=O)Nc4nc5ccccc5s4)c3C2)nc1C(=O)O [Example 19, 6-[8-(1,3-benzothiazol-2-ylcarbamoyl)-3,4-dihydroisoquinolin-2(1H)-yl]-3-(1-benzyl-3-methyl-1H-pyrazol-4-yl)pyridine-2-carboxylic acid]	–	7.55	6.40
Cc1c(-c2ccc(N3CCc4cccc(C(=O)Nc5nc6ccccc6s5)c4C3)nc2C(=O)O)cnn1CC1(OCC2COCCO2)CCCCCC1 (stereo not shown) [Example 173, 6-[8-(1,3-benzothiazol-2-ylcarbamoyl)-3,4-dihydroisoquinolin-2(1H)-yl]-3-(1-{[1-(1,4-dioxan-2-ylmethoxy)cycloheptyl]methyl}-5-methyl-1H-pyrazol-4-yl)pyridine-2-carboxylic acid]	–	> 10.00	10.00
O=C(Nc1nc2ccccc2s1)c1cccc2c1CN(c1ccc(-c3cnn(Cc4ccc(Cl)cc4)c3)c(C(=O)O)n1)CC2 [Example 15, 6-[8-(1,3-benzothiazol-2-ylcarbamoyl)-3,4-dihydroisoquinolin-2(1H)-yl]-3-[1-(4-chlorobenzyl)-1H-pyrazol-4-yl]pyridine-2-carboxylic acid]	< 6.00	7.46	–
Cc1c(-c2ccc(N3CCc4cccc(C(=O)Nc5nc6ccccc6s5)c4C3)nc2C(=O)O)cnn1CC1(OCC(O)CO)CCCCCC1 (stereo not shown) [Example 175, 6-[8-(1,3-benzothiazol-2-ylcarbamoyl)-3,4-dihydroisoquinolin-2(1H)-yl]-3-(1-{[1-(2,3-dihydroxypropoxy)cycloheptyl]methyl}-5-methyl-1H-pyrazol-4-yl)pyridine-2-carboxylic acid]	–	> 10.00	7.48
O=C(Nc1nc2ccccc2s1)c1cccc2c1CN(c1ccc(-c3cnn(Cc4cccc(-c5ccccc5)c4)c3)c(C(=O)O)n1)CC2 [Example 58, 6-[8-(1,3-benzothiazol-2-ylcarbamoyl)-3,4-dihydroisoquinolin-2(1H)-yl]-3-[1-(biphenyl-3-ylmethyl)-1H-pyrazol-4-yl]pyridine-2-carboxylic acid]	–	6.76	< 6.00
Cc1c(-c2ccc(N3CCc4cccc(C(=O)Nc5nc6ccccc6s5)c4C3)nc2C(=O)O)ccnc1N1CCCCC1 [Example 183, 6-[8-(1,3-benzothiazol-2-ylcarbamoyl)-3,4-dihydroisoquinolin-2(1H)-yl]-3'-methyl-2'-(piperidin-1-yl)-3,4'-bipyridine-2-carboxylic acid]	–	9.15	6.29
CC(C)CC1(Cn2cc(-c3ccc(N4CCc5cccc(C(=O)Nc6nc7ccccc7s6)c5C4)nc3C(=O)O)cn2)CCCCC1 [Example 87, 6-[8-(1,3-benzothiazol-2-ylcarbamoyl)-3,4-dihydroisoquinolin-2(1H)-yl]-3-(1-{[1-(2-methylpropyl)cyclohexyl]methyl}-1H-pyrazol-4-yl)pyridine-2-carboxylic acid]	–	8.40	6.91
